Source: publication PMC10349806 (Nature Communications, 2023)
Several values for one entry are separate records, joined by “and”; a condition that tells them apart may be missing. Equal entries are not always repeated.

Tests used:
PfCRT variant E271A = molecular target: T1, PfCRT variant E271A (Plasmodium falciparum, UniProt Q9N623, A220S/I356T/K76T/M74I/N326S/N75E/Q271A/R371I); test: CQ uptake assay, oocytes expressing E271A; assay type: cell-based
T1 sequence (Q9N623 1-424 M74I/N75E/K76T/A220S/Q271A/N326S/I356T/R371I): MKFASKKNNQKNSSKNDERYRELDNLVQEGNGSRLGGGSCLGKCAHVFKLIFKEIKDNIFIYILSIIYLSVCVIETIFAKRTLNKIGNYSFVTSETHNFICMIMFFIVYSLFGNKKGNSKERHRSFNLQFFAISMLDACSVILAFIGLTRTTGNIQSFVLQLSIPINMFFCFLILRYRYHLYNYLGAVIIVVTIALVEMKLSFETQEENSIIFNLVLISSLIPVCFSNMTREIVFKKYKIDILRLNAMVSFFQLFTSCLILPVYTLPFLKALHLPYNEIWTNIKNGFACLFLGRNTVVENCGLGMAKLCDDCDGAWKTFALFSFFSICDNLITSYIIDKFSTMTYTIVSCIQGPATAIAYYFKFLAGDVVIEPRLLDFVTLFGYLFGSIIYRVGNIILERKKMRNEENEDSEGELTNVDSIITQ
Experimental: (§1) Site-directed mutagenesis of PfCRT^Dd2 was performed as described using the megaprimer method with overlap extension[21],[54]. The primer pairs used are listed in Supplementary Table 6. Please note that a codon-optimized and oocyte-adapted version of PfCRT^Dd2 was used[22] (Supplementary Fig. 16). The resulting DNA fragment was cloned into the SP64T expression vector and verified by sequencing.
(§2) Oocytes were obtained as described previously. Briefly, adult (>2 years old) female X. laevis frogs (NASCO) were anesthetized in a cooled solution of ethyl 3-amino benzoate methanesulfonate (0.1%, w/v), followed by a surgical removal of parts of the ovary. The ovary lobes were carefully dissected and small pieces of oocytes were incubated in Ca^2+-free ND96 buffer (96 mM NaCl, 2 mM KCl, 1 mM MgCl2 buffered with 5 mM HEPES/NaOH, pH 7.5) supplemented with collagenase D (0.1%, w/v; Roche), BSA (0.5%, w/v), and 9 mm Na2HPO4 at 18 °C for 14-16 h while gentle shaking. After incubation, the oocytes were carefully washed several times with ND96 buffer (96 mM NaCl, 2 mM KCl, 1.8 mM CaCl2, 1 mM MgCl2 buffered with 5 mM HEPES/NaOH, pH 7.5) supplemented with 100 mg l^−1 gentamycin). Defolliculated and healthy-looking stage V-VI oocytes were manually selected for RNA microinjection. The RNA was generated as following: The codon-optimized sequences of PfCRT variants were cloned into the pSP64T expression vector. After vector linearization using the restriction endonucleases BamHI or SalI (New England Biolabs), transcription was performed using the in vitro SP6 mMessage mMachine Kit (Ambion)[34]. The obtained RNA was kept at −80 °C and diluted with nuclease-free water to a concentration of 0.6 μg μl^−1. Precision-bore glass capillary tubes (3.5-inch glass capillaries; Drummond Scientific Co.) were pulled on a vertical puller (P-87 Flaming/Brown micropipette puller, Sutter Instrument Co.), graduated, and placed on a microinjector (Nanoject II Auto-Nanoliter Injector, Drummond Scientific Co.). 50 nl of nuclease-free water alone (control oocytes) or 50 nl of 0.6 μg μl^−1 RNA were injected under stereomicroscopic control. Injected oocytes were incubated for 46–72 h at 18 °C with twice-daily buffer changes before usage in experiments.
Drug uptake assays were performed as described previously[21],[22],[24],[34]. […] Oocytes that were injected with water instead of RNA were analyzed in parallel, representing the uptake of a drug by diffusion and/or endogenous permeation pathways. […] The specific PfCRT-mediated uptake was determined by subtracting the corresponding background value measured in water-injected oocytes from that of PfCRT-expressing oocytes. […]

PfCRT variant R374A = test: CQ uptake assay, oocytes expressing R374A; assay type: cell-based, Plasmodium falciparum
Experimental: as §1
as §2, with “Precision-bore glass capillary tubes (3.5-inch glass capillaries; Drummond Scientific Co.) were pulled on a vertical puller (P-87 Flaming/Brown micropipette puller, Sutter Instrument Co.), graduated, and placed on a microinjector (Nanoject II Auto-Nanoliter Injector, Drummond Scientific Co.). 50 nl of nuclease-free water alone (control oocytes) or 50 nl of 0.6 μg μl^−1 RNA were injected under stereomicroscopic control. Injected oocytes were incubated for 46–72 h at 18 °C with twice-daily buffer changes before usage in experiments.” left out
Drug uptake assays were performed as described previously[21],[22],[24],[34]. […] The radioactivity of each sample was measured using a liquid scintillation analyzer Tri-Carb 4910 TR (PerkinElmer). Oocytes that were injected with water instead of RNA were analyzed in parallel, representing the uptake of a drug by diffusion and/or endogenous permeation pathways. […]

**Q.** How did the “Activity at pH 4.5” value (PfCRT variant E271A; E271A, 50 µM CQ, 1 h, mean ± SEM) turn out when CCN(CC)CCCC(C)Nc1ccnc2cc(Cl)ccc12 (stereo not shown) [CQ, chloroquine] was run?
**A.** The value was 1.01 ± 0.09 pmol h-1 oocyte-1.

**Q.** What about the R-value (PfCRT variant E271A; E271A, CQ transport at pH 4.5 / pH 6.0) of the same compound?
**A.** The R-value was 0.61 ± 0.09.

**Q.** What about the “E271A transport activity pH 4.5” value (PfCRT variant E271A; pH 4.5, single replicates, Fig 1d left) of the same compound?
**A.** The value was 1.17 pmol oocyte-1 h-1 and 1.13 pmol oocyte-1 h-1 and 0.65 pmol oocyte-1 h-1 and 0.98 pmol oocyte-1 h-1.

**Q.** What about the “E271A transport activity pH 6.0” value (PfCRT variant E271A; pH 6.0, single replicates, Fig 1d left) of the same compound?
**A.** The value was 1.98 pmol oocyte-1 h-1 and 1.71 pmol oocyte-1 h-1 and 1.20 pmol oocyte-1 h-1 and 2.10 pmol oocyte-1 h-1 and 1.74 pmol oocyte-1 h-1.

**Q.** What about the “Activity at pH 4.5” value (PfCRT variant R374A; 50 µM CQ, 1 h, mean ± SEM) of the same compound?
**A.** Its value is 0.90 ± 0.14 pmol h-1 oocyte-1.

**Q.** And the “Activity at pH 6.0” value (PfCRT variant R374A; 50 µM CQ, 1 h, mean ± SEM)?
**A.** Its value is 3.81 ± 0.61 pmol h-1 oocyte-1.

**Q.** What about the R-value (PfCRT variant R374A; CQ transport at pH 4.5 / pH 6.0) of the same compound?
**A.** Its R-value is 0.23 ± 0.03.
